Assay results from US12605376B2, “Methods of treating relapsing multiple sclerosis using an inhibitor of Bruton's tyrosine kinase” (Genentech, Inc., priority 2020, dated 2026).
Where two headings read alike, the source gives them in different places. Marks after values point to notes of the source that are not given here.

Experiments:
[1] = system: panel of over 200 human kinases; assay: Kinase selectivity screen in a panel of over 200 human kinases; type: biochemical; conditions: for # off-target kinases >50% INH/# total kinases tested @ 1 μM: unpublished
[2] = system: cells of myeloid progenitor lineage (basophils); assay: Inhibition of myeloid lineage progenitor cell activation (FcR signaling, basophils); type: cell-based; conditions: (±SEM)
B cells = assay: Inhibition of B cell activation (B-cell receptor signalling); type: cell-based; conditions: (±SEM)
[3] = system: panel of over 200 human kinases; conditions: Crawford, et al., cited from earlier work
B cells (CD69) = conditions: B cell activation, human whole blood, literature values, cited from earlier work
basophils (CD63) = conditions: basophil activation, human whole blood, literature values, cited from earlier work
[4] = Safety analysis of previous fenebrutinib clinical trials in RA, SLE and CSU
[5] = without specific elimination procedures; cited from earlier work
[6] = patients with autoimmune conditions

C=CC(=O)N1CCC(CNc2ncnc(N)c2-c2ccc(Oc3ccccc3)cc2)CC1 [Evobrutinib]
off-target kinases inhibited by >50% / kinases tested at 10 μM ([1]; 10 μM): 18/218
EC50 [2]: 171 nM
EC90 [2]: 3100 nM
EC50 (B cells): 161 nM
EC90 (B cells): 524 nM
# off-target kinases >50% INH/# total kinases tested @ 1 μM ([3]; J Med Chem 2018, listed as EVO): 3/221
# off-target kinases >50% INH/# total kinases tested @ 1 μM ([3]; J Med Chem 2018): 3/221 ^a
IC50 (B cells (CD69)): 84 nM
IC50 (basophils (CD63)): 1660 nM

C[C@H]1CN(C2COC2)CCN1c1ccc(Nc2cc(-c3ccnc(N4CCn5c(cc6c5CC(C)(C)C6)C4=O)c3CO)cn(C)c2=O)nc1 [Fenebrutinib, (S)-2-(3′-(hydroxymethyl)-1-methyl-5-((5-(2-methyl-4-(oxetan-3-yl)piperazin-1-yl)pyridin-2-yl)amino)-6-oxo-1,6-dihydro-[3,4′-bipyridin]-2′-yl)-7,7-dimethyl-2,3,4,6,7,8-hexahydro-1H-cyclopenta[4,5]pyrrolo[1,2-a]pyrazin-1-one]
EC50 [2]: 15 nM
EC90 [2]: 62 nM
EC50 (B cells): 8 nM
EC90 (B cells): 65 nM
# off-target kinases >50% INH/# total kinases tested @ 1 μM ([3]; J Med Chem 2018, listed as FEN): 3/286
# off-target kinases >50% INH/# total kinases tested @ 1 μM ([3]; J Med Chem 2018): 2/286 ^a
IC50 (B cells (CD69)): 8.4 nM
IC50 (B cells (CD69); listed as FEN): 8 nM
IC50 (basophils (CD63)): 30.7 nM
IC50 (basophils (CD63); listed as FEN): 31 nM
Headache, investigator-reported events ([4]; 200 mg twice daily, n = 299): 16 (5.4%) patients (%)
Nasopharyngitis, investigator-reported events ([4]; 200 mg twice daily, n = 299): 18 (6.0%) patients (%)
Nausea, investigator-reported events ([4]; 200 mg twice daily, n = 299): 17 (5.7%) patients (%)
Number of patients with AE leading to treatment withdrawal ([4]; 200 mg twice daily, n = 299): 32 (10.7%) patients (%)
Number of patients with Serious AE ([4]; 200 mg twice daily, n = 299): 18 (6.0%) patients (%)
Number of patients with Serious AE related to blinded fenebrutinib ([4]; 200 mg twice daily, n = 299): 6 (2.0%) patients (%)
Number of patients with Study withdrawal due to AE ([4]; 200 mg twice daily, n = 299): 17 (5.7%) patients (%)
Total adverse events (AEs) ([4]; 200 mg twice daily, n = 299, RA/SLE/CSU trials): 507
Number of patients with Fatal AE ([4]; 200 mg twice daily, n = 299, death deemed unrelated to fenebrutinib): 1 (0.3%) patients (%)
Percent of patients with infection adverse events ([4]; CSU, 200 mg, n = 52, median follow-up 56 days): 32.7% (n = 52)
Percent of patients with infection adverse events ([4]; RA cohort 1, 200 mg, n = 110, median follow-up 84 days): 10.9% (n = 110)
Percent of patients with infection adverse events ([4]; RA cohort 2, 200 mg, n = 49, median follow-up 84 days): 6.1% (n = 49)
Percent of patients with infection adverse events ([4]; SLE, 200 mg, n = 88, median follow-up 336 days): 46.6% (n = 88)
infection rates in fenebrutinib arms compared to placebo ([4]; background immunosuppressant therapy in RA and SLE): no imbalance of infection rates
patients with serious infections ([4]; combined fenebrutinib arms): 2.0%
bleeding or bruising, patients ([4]; fenebrutinib arms): 7.7%
Hy's law cases [4, 6]: no Hy's law cases
risk causally associated with fenebrutinib (liver aminotransferase elevations) [4, 6]: Asymptomatic and reversible liver aminotransferase elevations were the only risk causally associated with fenebrutinib
atrial fibrillations, flutters, or other supraventricular tachyarrhythmias ([4]; randomized clinical trial patients): No fenebrutinib randomized clinical trial patients had atrial fibrillations, flutters, or other supraventricular tachyarrhythmias

C/C(O)=C(\C#N)C(=O)Nc1ccc(C(F)(F)F)cc1 [teriflunomide]
time to lower plasma teriflunomide concentrations to 0.02 mg/L [5]: up to 2 years

C=CC(=O)N1CCC[C@@H](n2c(=O)n(-c3ccc(Oc4ccccc4)cc3)c3c(N)nccc32)C1 [Tolebrutinib]
# off-target kinases >50% INH/# total kinases tested @ 1 μM [1]: 19/218 ^d
# off-target kinases >50% INH/# total kinases tested @ 1 μM ([1]; listed as TOL): 19/218
EC50 [2]: 80 nM
EC90 [2]: 281 nM
EC50 (B cells): 26 nM
EC90 (B cells): 84 nM
IC50 (B cells (CD69)): 10 nM
IC50 (basophils (CD63)): 166 nM
